# Source: article PMC6009955, “Synthesis of new pyridothienopyrimidinone and pyridothienotriazolopyrimidine derivatives as pim-1 inhibitors” (Journal of Enzyme Inhibition and Medicinal Chemistry, 2017)
# Read-outs that look alike come from different tables or passages of the source.
# Legend:
# [1] = test system: pim-1; details: cited from earlier work
# [2] = test system: human colon adenocarcinoma (HCT116); experiment: In vitro cytotoxic activity, MTT method, HCT116; format: cell-based; details: 48 h incubation, means of three experiments
# Protocol: Cell line cells were obtained from American Type Culture Collection (ATCC, Manassas, VA). The cell lines used in this study were human breast adenocarcinoma (MCF7) and human colon adenocarcinoma (HCT116). The cells were cultured using DMEM (Invitrogen/Life Technologies) supplemented with 10% FBS (Hyclone), 10 µg/mL insulin (Sigma) and 1% penicillin-streptomycin. All of the other chemicals and reagents were from Sigma or Invitrogen. […] The culture medium was removed to a centrifuge tube. The cell layer was rinsed with 0.25% (w/v) Trypsin 0.53 mM EDTA solution to remove all traces of serum which contains Trypsin inhibitor. Then, 2–3 ml of Trypsin EDTA solution was added and the cells were observed under an inverted microscope until the cell layer is dispersed (usually within 5–15 min.). A volume of 6 to 8 ml of complete growth medium was added and the cells were aspirated by gently pipetting. The cell suspension was transferred to the centrifuge tube with the culture medium and centrifuged at approximately 125 ×g for 5 to 10 min. The supernatant was discarded and the cells were suspended in fresh growth medium then incubated at 37 °C for 24 h. After treatment of the cells with the serial concentrations of the test compounds or the control Staurosporine in DMSO (at concentrations of 200, 100, 10, 1 and 0.1 µM), incubation was carried out for 48 h at 37 °C, then the plates were examined under the inverted microscope and proceeded for the MTT assay. The MTT method of monitoring in vitro cytotoxicity is well suited for use with multiwell plates. For best results, cells in the log phase of growth should be employed and final cell number should not exceed 10^6 cells/cm^2. Each test should include a blank containing complete medium without cells. Cell cultures were removed from the incubator into laminar flow hood. Each vial of MTT [M-5655] was reconstituted to be used with 3 ml of medium or balanced salt solution without phenol red and serum and the reconstituted MTT was added in an amount equal to 10% of the culture medium volume. Then the cultures were returned to the incubator for 2–4 h depending on the cell type and the maximum cell density. After the incubation period, the cultures were removed from incubator and the resulting formazan crystals were dissolved by adding an amount of MTT solvent (solubilisation solution) [M-8910] equal to the original culture medium volume. Gentle mixing in a gyratory shaker enhanced dissolution. Occasionally pipetting up and down [trituration] may be required to completely dissolve the MTT formazan crystals. The absorbance was measured at a wavelength of 450 nm using Bioline ELIZA reader. The background absorbance of the multiwell plates was measured at 690 nm and subtracted from the 450 nm measurement. […]
# [3] = test system: human breast adenocarcinoma (MCF7); experiment: In vitro cytotoxic activity, MTT method, MCF7; format: cell-based; details: MCF-7, MTT, 48 h incubation, means of three experiments
# Protocol: Cell line cells were obtained from American Type Culture Collection (ATCC, Manassas, VA). The cell lines used in this study were human breast adenocarcinoma (MCF7) and human colon adenocarcinoma (HCT116). The cells were cultured using DMEM (Invitrogen/Life Technologies) supplemented with 10% FBS (Hyclone), 10 µg/mL insulin (Sigma) and 1% penicillin-streptomycin. All of the other chemicals and reagents were from Sigma or Invitrogen. […] The culture medium was removed to a centrifuge tube. The cell layer was rinsed with 0.25% (w/v) Trypsin 0.53 mM EDTA solution to remove all traces of serum which contains Trypsin inhibitor. Then, 2–3 ml of Trypsin EDTA solution was added and the cells were observed under an inverted microscope until the cell layer is dispersed (usually within 5–15 min.). A volume of 6 to 8 ml of complete growth medium was added and the cells were aspirated by gently pipetting. The cell suspension was transferred to the centrifuge tube with the culture medium and centrifuged at approximately 125 ×g for 5 to 10 min. The supernatant was discarded and the cells were suspended in fresh growth medium then incubated at 37 °C for 24 h. After treatment of the cells with the serial concentrations of the test compounds or the control Staurosporine in DMSO (at concentrations of 200, 100, 10, 1 and 0.1 µM), incubation was carried out for 48 h at 37 °C, then the plates were examined under the inverted microscope and proceeded for the MTT assay. The MTT method of monitoring in vitro cytotoxicity is well suited for use with multiwell plates. For best results, cells in the log phase of growth should be employed and final cell number should not exceed 10^6 cells/cm^2. Each test should include a blank containing complete medium without cells. Cell cultures were removed from the incubator into laminar flow hood. Each vial of MTT [M-5655] was reconstituted to be used with 3 ml of medium or balanced salt solution without phenol red and serum and the reconstituted MTT was added in an amount equal to 10% of the culture medium volume. Then the cultures were returned to the incubator for 2–4 h depending on the cell type and the maximum cell density. After the incubation period, the cultures were removed from incubator and the resulting formazan crystals were dissolved by adding an amount of MTT solvent (solubilisation solution) [M-8910] equal to the original culture medium volume. Gentle mixing in a gyratory shaker enhanced dissolution. Occasionally pipetting up and down [trituration] may be required to completely dissolve the MTT formazan crystals. The absorbance was measured at a wavelength of 450 nm using Bioline ELIZA reader. The background absorbance of the multiwell plates was measured at 690 nm and subtracted from the 450 nm measurement. The results are shown in Table 2 and graphically represented in Figure 5. […] The results in terms of IC50 in µM are given in Table 2 and represented graphically in Figure 5.
# [4] = biological target: T1, Human proto-oncogene serine/threonine-protein kinase pim-1 (PIM1) (Homo sapiens, UniProt P11309); experiment: Pim-1 kinase inhibitory activity (PIM1 ELISA kit); format: biochemical; details: for inhibition at 25 µM: read-out: % Inhibition at 25µM; for IC50: tested at 0.2, 1, 5 and 25 µM
# T1 construct: purchased MBS7573
# Protocol: The kinase inhibitory activity of the synthesised compounds was determined using Human proto-oncogene serine/threonine-protein kinase pim-1 (PIM1) ELISA Kit (catalog #MBS7573). All the compounds were tested for their inhibitory activity against pim-1 kinase at 0.2, 1, 5 and 25 µM using Staurosporine as a reference standard.
# [5] = test system: pim-2; details: cited from earlier work
# [6] = previous work, 2-aryl-2,3-dihydro derivatives ref 9, read-out: IC50 pim-1 inhibition
# T1 sequence (P11309 whole entry): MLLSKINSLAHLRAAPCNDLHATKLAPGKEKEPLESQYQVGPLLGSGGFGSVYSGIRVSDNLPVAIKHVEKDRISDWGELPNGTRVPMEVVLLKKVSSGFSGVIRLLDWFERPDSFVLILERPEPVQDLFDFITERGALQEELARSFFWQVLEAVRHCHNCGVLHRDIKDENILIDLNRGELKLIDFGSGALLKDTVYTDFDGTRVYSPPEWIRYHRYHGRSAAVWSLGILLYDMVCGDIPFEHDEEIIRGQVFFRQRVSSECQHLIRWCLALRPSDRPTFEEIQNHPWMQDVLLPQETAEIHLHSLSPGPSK
SMILES,melting point [°C],"inhibition at 25 µM ([4]; pim-1 kinase, 25 µM) [%]",IC50 ([4]; pim-1 kinase) [nM],further results
Cc1nc2sc3c(c2c(C)c1Br)NC(c1ccccc1C(F)(F)F)NC3=O (centres unmarked) [Vc],,,,"IC50 [1, 6]: 1970 nM"
"Cc1nc2sc3c(c2c(C)c1Br)NC(c1ccc(Br)cc1)NC3=O (centres unmarked) [Compound 3b, 8-Bromo-2-(4-bromophenyl)-7,9-dimethyl-2,3-dihydropyrido[3′,2′:4,5]thieno[3,2-d]pyrimidin-4(1H)-one]",> 300,96,60,"IC50 ([2]; Homo sapiens, HCT-116, 48 h): 2740 ± 150 nM; IC50 ([3]; Homo sapiens, MCF7, 48 h): 1840 ± 120 nM"
"CN[C@@H]1C[C@H]2O[C@@](C)([C@@H]1OC)n1c3ccccc3c3c4c(c5c6ccccc6n2c5c31)C(=O)NC4 [Staurosporine, reference compound]",,,,inhibition at 25 µM [4]: 94%
"Cc1nc2sc3c(c2c(C)c1Br)NC(c1ccc(O)c(O)c1)NC3=O (centres unmarked) [Compound 3e, 8-Bromo-2-(3,4-dihydroxyphenyl)-7,9-dimethyl-2,3-dihydropyrido[3′,2′:4,5]thieno[3,2-d]pyrimidin-4(1H)-one]",,93,60,
O=C(O)c1ccc2c(c1)nc(Nc1cccc(Cl)c1)c1ccncc12 [CX-4595],,,,IC50 ([1]; read-out: IC50 (pim-1)): 48 nM; IC50 [5]: 186 nM
"Cc1nc2sc3c(c2c(C)c1Br)NC(c1ccc(OCc2ccccc2)cc1)NC3=O (centres unmarked) [Compound 3a, 2-(4-(Benzyloxy)phenyl)-8-bromo-7,9-dimethyl-2,3-dihydropyrido[3′,2′:4,5]thieno[3,2-d]pyrimidin-4(1H)-one]",255 to 256,83,960,
Cc1nc2sc3c(c2c(C)c1Br)NC(c1ccccc1O)NC3=O (centres unmarked) [Vb],,,,"IC50 [1, 6]: 1380 nM"
"Cc1nc2sc3c(c2c(C)c1Br)NC(c1ccc(F)cc1)NC3=O (centres unmarked) [Compound 3f, 8-Bromo-2-(4-fluorophenyl)-7,9-dimethyl-2,3-dihydropyrido[3′,2′:4,5]thieno[3,2-d]pyrimidin-4(1H)-one]",> 300,89,1000,
"COc1cc(C2NC(=O)c3sc4nc(C)c(Br)c(C)c4c3N2)cc(OC)c1OC (centres unmarked) [Compound 3i, 8-Bromo-7,9-dimethyl-2-(3,4,5-trimethoxyphenyl)-2,3-dihydropyrido[3′,2′:4,5]thieno[3,2-d]pyrimidin-4(1H)-one]",> 300,81,930,
"Cc1nc2sc3c(c2c(C)c1Br)NC(c1ccc(Cl)cc1)NC3=O (centres unmarked) [Compound 3c, 8-Bromo-2-(4-chlorophenyl)-7,9-dimethyl-2,3-dihydropyrido[3′,2′:4,5]thieno[3,2-d]pyrimidin-4(1H)-one]",> 300,92,140,"IC50 ([3]; Homo sapiens, MCF7, 48 h): < 500 nM; IC50 [3]: 390 ± 70 nM"
"Cc1nc2sc3c(c2c(C)c1Br)NC(c1ccsc1)NC3=O (centres unmarked) [Compound 3j, 8-Bromo-7,9-dimethyl-2-(thiophen-3-yl)-2,3-dihydropyrido[3′,2′:4,5]thieno[3,2-d]pyrimidin-4(1H)-one]",280 to 281,95,100,"IC50 ([2]; Homo sapiens, HCT-116, 48 h): 4820 ± 210 nM; IC50 ([3]; Homo sapiens, MCF7, 48 h): < 500 nM; IC50 [3]: 310 ± 20 nM"
Cc1nc2sc3c(c2c(C)c1Br)NC(c1ccccc1Cl)NC3=O (centres unmarked) [Va],,,,"IC50 [1, 6]: 1180 nM"

# Second part, led by results:
melting point [°C],"inhibition at 25 µM ([4]; pim-1 kinase, 25 µM) [%]",IC50 ([4]; pim-1 kinase) [nM],SMILES,further results
,92,80,"COc1cc(C2NC(=O)c3sc4nc(C)c(Br)c(C)c4c3N2)ccc1O (centres unmarked) [Compound 3g, 8-Bromo-2-(4-hydroxy-3-methoxyphenyl)-7,9-dimethyl-2,3-dihydropyrido[3′,2′:4,5]thieno[3,2-d]pyrimidin-4(1H)-one]","IC50 ([3]; Homo sapiens, MCF7, 48 h): < 500 nM; IC50 [3]: 460 ± 90 nM"
> 300,84,1170,"COc1ccc(C2NC(=O)c3sc4nc(C)c(Br)c(C)c4c3N2)cc1 (centres unmarked) [Compound 3h, 8-Bromo-2-(4-methoxyphenyl)-7,9-dimethyl-2,3-dihydropyrido[3′,2′:4,5]thieno[3,2-d]pyrimidin-4(1H)-one]",
277 to 278,81,1080,"Cc1nc2sc3c(ncn4ncnc34)c2c(C)c1Br [Compound 6, 8-bromo-7,9-dimethylpyrido[3′,2′:4,5]thieno[2,3-e][1,2,4]triazolo[1,5-c]pyrimidine]",
> 300,89,220,"Cc1nc2sc3c(=N)n(N=Cc4ccccc4C(F)(F)F)cnc3c2c(C)c1Br [Compound 9b, 8-Bromo-4-imino-7,9-dimethyl-N-(2-(trifluoromethyl)benzylidene)pyrido[3′,2′:4,5]thieno[3,2-d]pyrimidin-3(4H)-amine]",
> 300,88,520,"Cc1nc2sc3c(=N)n(N=Cc4ccc(Br)cc4)cnc3c2c(C)c1Br [Compound 9a, 8-Bromo-N-(4-bromobenzylidene)-4-imino-7,9-dimethylpyrido[3′,2′:4,5]thieno[3,2-d]pyrimidin-3(4H)-amine]",
199 to 200,93,80,"Cc1nc2sc3c(ncn4nc(C(F)(F)F)nc34)c2c(C)c1Br [Compound 7b, 8-Bromo-7,9-dimethyl-2-(trifluoromethyl)pyrido[3′,2′:4,5]thieno[2,3-e][1,2,4]triazolo[1,5-c]pyrimidine]","IC50 [2]: 650 ± 40 nM; IC50 ([2]; Homo sapiens, HCT-116, 48 h): < 1000 nM; IC50 ([3]; Homo sapiens, MCF7, 48 h): 4620 ± 140 nM"
,76,1760,"Cc1nc2c3sc4nc(C)c(Br)c(C)c4c3ncn2n1 [Compound 7a, 8-Bromo-2,7,9-trimethylpyrido[3′,2′:4,5]thieno[2,3-e][1,2,4]triazolo[1,5-c]pyrimidine]",
290 to 291,81,1340,"Cc1nc2sc3c(c2c(C)c1Br)NC(c1ccc(O)cc1O)NC3=O (centres unmarked) [Compound 3d, 8-Bromo-2-(2,4-dihydroxyphenyl)-7,9-dimethyl-2,3-dihydropyrido[3′,2′:4,5]thieno[3,2-d]pyrimidin-4(1H)-one]",
198 to 199,95,100,"CCOC(=O)Cc1nc2c3sc4nc(C)c(Br)c(C)c4c3ncn2n1 [Compound 8, ethyl 2-(8-bromo-7,9-dimethylpyrido[3′,2′:4,5]thieno[2,3-e][1,2,4]triazolo[1,5-c]pyrimidin-2-yl)acetate]","IC50 ([3]; Homo sapiens, MCF7, 48 h): < 500 nM; IC50 [3]: 410 ± 30 nM"
